Each structure is given as a SMILES string. pKi: −log10 of the molar value.

The term pKi denotes the negative decadic logarithm of the Ki, by convention in mol/L.

One experiment relates to S. aureus NRS383. As to the kind of experiment: mouse MRSA peritonitis/sepsis model. It is filed as in vivo, mice. Particulars: for survival by day 2 post-inoculation: 10 mg/kg i.p. As to the method:
Mice were infected intraperitoneally with 0.2 ml of the indicated inoculum of S. aureus NRS383 in 3% hog gastric mucin/PBS. One group of mice/inoculum received either the vehicle or L-161, 982 at a dose of 10 mg/kg by i.p. injection as indicated in Materials and Methods. (A) Mortality was assessed using Kaplan Meier test (*P<0.05; **P<0.01; ***P<0.001; ns—not significant; n=15/group) compared to control groups. (B) Microbial burden in peritoneal lavage fluid and spleen was assessed between untreated (control) and treated (L-161, 982) groups 24 and 48 h post-inoculation (n=6 to 8/group). Values are plotted as the median CFU and compared using the Mann-Whitney U test (**P<0.01; ***P<0.001). Data shown are representative of three replicate experiments.
The mouse peritonitis/intra-abdominal model was performed as previously described (8). In brief, for MRSA peritonitis, mice were injected intraperitoneally (i.p.) with 4×10^6 CFU or 5×10^6 CFU or 2×10^7 CFU of S. aureus in 0.2 ml of PBS containing 3% hog gastric mucin type III (Sigma Aldrich). Mice injected i.p. with 0.2 ml of mucin/PBS served as a negative infection control. For the intra-abdominal infection with C. albicans and S. aureus, mice were injected i.p. with 7×10^6 CFU of C. albicans and 8×10^7 CFU of S. aureus (8.7×10^7 CFU total) in 0.2 ml of PBS. After inoculation, mice were observed over 10 days for signs of morbidity (hunched posture, inactivity, lethargy, and ruffled fur) and mortality. […] In the MRSA peritonitis experiments, mice were sacrificed at 24 or 48 h post-inoculation to assess microbial burden. Peritoneal cavities were lavaged by injection of 2 ml of sterile PBS followed by gentle massaging of the peritoneal cavity. Peritoneal lavage fluid then was removed using a pipette inserted into a small incision in the abdominal cavity. Spleens were removed, weighed, and mechanically homogenized prior to CFU analysis. Microbial burdens in the peritoneal lavage fluid and spleen were enumerated as described above.
Each inhibitor was prepared fresh as a concentrated stock (20-25 mg/ml) in DMSO and diluted to a working concentration of […] in sterile PBS (final DMSO concentration, 2.3%). A sham treatment containing only 2.3% DMSO in PBS was also prepared. For the MRSA peritonitis study, the EP4 receptor antagonist was administered 2 h after S. aureus inoculation and once daily thereafter until day 4 post inoculation. For the IAI co-infection study, COX inhibitor or vehicle control was administered 4 h prior to and 4 and 8 h after inoculation with C. albicans and S. aureus while the EP receptor antagonists were administered daily starting 1 day prior to and 5 days after infection. All other procedures were performed as described above. Control groups received the vehicle at the same dose interval.
L-161, 982 protects against mono- and poly-microbial infections with MRSA. We next evaluated the efficacy of L-161, 982 in vivo using an established mouse peritonitis/sepsis model of infection. Mice were inoculated with three varying lethal inocula of S. aureus and treated with L-161, 982 (10 mg/kg) intraperitoneally (i.p.) 2 h post-inoculation and once daily afterwards through day 4. Control group received the vehicle at the same dose interval.

Experiment [1] concerns pre-formed dual-species biofilm. Briefly: pre-formed mature biofilm (XTT, CFU). It is filed as cell-based, C. albicans and S. aureus. Conditions: 100 and 200 μg/ml. As to the method:
The effect of L-161, 982 on pre-formed mature biofilms was tested. Mono- and dual-species C. albicans and/or S. aureus biofilms were grown on 96-well plates for 24 h before being treated with the indicated concentration of L-161, 982 for a further 24 h. After treatment, metabolic activity of biofilms was quantified by the XTT assay (A) and then biofilms were disrupted to determine live colony forming units (CFU) (B). The results are cumulative of three independent experiments with duplicate samples. Statistics were performed using One-way ANOVA with the Tukey post-hoc test for the XTT assay. The Mann-Whitney U test was used to analyze CFU data. Significance is indicated as follows: ns—not significant, *P<0.05; *** P<0.001. Error bars represent standard deviation.
Following growth as described above, microbes were washed in phosphate-buffered saline (PBS) by centrifugation, counted on a hemocytometer, and adjusted to 2×10^7 CFU/ml in RPMI buffered with MOPS (165 mM). […]
The XTT reduction assay was used to determine the metabolic activity of biofilms following treatment with L-161, 982 (17). Briefly, wells were washed once in PBS, and plates incubated at 37° C. for 2 h with 200 μl XTT working reagent (0.5 mg/ml XTT and 1 μM Menadione) and the resulting absorbance measured at 490 nm on a microplate spectrophotometer. […]
A general note: Tetrazolium assays rely on reduction of a dye to a coloured formazan, in cell work by metabolically active cells.

In another experiment the target is FP (Homo sapiens, UniProt P43088). Particulars: cited from earlier work.
FP, sequence (P43088 whole entry): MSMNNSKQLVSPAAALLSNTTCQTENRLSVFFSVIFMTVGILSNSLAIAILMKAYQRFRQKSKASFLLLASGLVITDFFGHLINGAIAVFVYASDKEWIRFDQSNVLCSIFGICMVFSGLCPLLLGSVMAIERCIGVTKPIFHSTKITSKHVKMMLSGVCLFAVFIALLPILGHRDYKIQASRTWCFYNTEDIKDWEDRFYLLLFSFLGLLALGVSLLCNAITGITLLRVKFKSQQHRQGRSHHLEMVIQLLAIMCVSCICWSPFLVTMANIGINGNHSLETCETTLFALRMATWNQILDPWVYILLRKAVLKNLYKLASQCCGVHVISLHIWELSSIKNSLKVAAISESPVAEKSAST
Experiment [2] relates to LPS-activated human macrophages. Conditions: 100 nM; cited from earlier work.

Turning to `CCCCc1nn(-c2ccccc2C(F)(F)F)c(=O)n1Cc1ccc(-c2ccccc2S(=O)(=O)NC(=O)c2sccc2C)cc1` [L-161, 982, N-[[4′-[[3-Butyl-1,5-dihydro-5-oxo-1-[2-(trifluoromethyl)phenyl]-4H-1,2,4-triazol-4-yl]methyl][1,1′-biphenyl]-2-yl]sulfonyl]-3-methyl-2-thiophenecarboxamide], the “reduction of S. aureus in peritoneal cavity and spleen” value in the experiment on S. aureus NRS383 (24 h post inoculation, vs untreated) was found to be 3 logs. Also, the “additional reduction of S. aureus in peritoneal cavity and spleen” value with S. aureus NRS383 (48 h post infection, after a second dose) is on record as 3 log. For the same compound, in the experiment on S. aureus NRS383 (inoculum 2×10^7 CFU), the “mortality by day 2 at high inoculum” value is reported as “could not be reversed”. The “survival by day 2 post-inoculation” value with S. aureus NRS383 (inoculum 4×10^6 CFU, control 40) was 85%; in the experiment on S. aureus NRS383 (inoculum 5×10^6 CFU, control 25) it was 55%. In addition, the “survival through day 10” value with S. aureus NRS383 (intermediate and lowest inocula, continued dosing, control 20% survival) is “sustained survival”. The “survival rate raised by” value in the experiment on S. aureus NRS383 (one treatment, depending on infectious dose) is “at least 50%”. For the same compound, in experiment [1], the “S. aureus CFUs recovered from pre-formed dual-species biofilm” value is given as “no CFUs were recovered”. Moreover, the pKi at FP was 5.25. Also, in experiment [2], the “effect on anti-inflammatory action of PGE2” value is “reverses the anti-inflammatory action of PGE2”.

These data come from patent publication US20200352912A1, “ANTIMICROBIAL COMPOSITIONS AND METHODS OF USING THE SAME” (The Board Of Supervisors Of Louisiana State University And …, priority 2018, published 2020).
